Test results taken from article PMC4035740 (The Journal of General Physiology, 2014).
Changes are numbered by the printed parent chain. Like-named read-outs stand apart in the source and are kept apart here.

Legend:
Assay type in all cases: cell-based
[1] = molecular target: T1, rat P2X2 WT (Rattus norvegicus, UniProt P49653); test: ATP dose–response, two-electrode voltage clamp in Xenopus oocytes, WT
T1 sequence (P49653 1-472): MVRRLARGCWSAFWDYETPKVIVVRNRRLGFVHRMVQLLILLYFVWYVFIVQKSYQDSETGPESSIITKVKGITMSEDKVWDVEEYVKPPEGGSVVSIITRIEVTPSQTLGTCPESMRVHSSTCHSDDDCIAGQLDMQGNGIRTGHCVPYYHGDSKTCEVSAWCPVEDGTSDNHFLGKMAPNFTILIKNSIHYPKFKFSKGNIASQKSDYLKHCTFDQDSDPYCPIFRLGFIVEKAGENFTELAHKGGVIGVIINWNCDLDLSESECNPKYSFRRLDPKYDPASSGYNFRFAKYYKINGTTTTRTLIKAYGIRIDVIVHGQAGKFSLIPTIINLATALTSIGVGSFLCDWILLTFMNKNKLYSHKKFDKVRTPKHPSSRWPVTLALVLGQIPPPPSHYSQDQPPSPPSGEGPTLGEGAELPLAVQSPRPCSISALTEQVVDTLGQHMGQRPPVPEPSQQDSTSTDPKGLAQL

[2] = molecular target: T2, rat P2X2 tandem trimer WT–WT–WT (Rattus norvegicus, UniProt P49653); test: ATP dose–response, two-electrode voltage clamp in Xenopus oocytes, WT–WT–WT
T2 sequence (P49653 1-472) 1: T1 sequence (P49653 1-472)
T2 sequence (P49653 1-472) 2: T1 sequence (P49653 1-472)
T2 sequence (P49653 1-472) 3: T1 sequence (P49653 1-472)

[3] = molecular target: T3, rat P2X2 tandem trimer K308A–WT–WT (Rattus norvegicus, UniProt P49653, K308A); test: ATP dose–response, two-electrode voltage clamp in Xenopus oocytes, K308A–WT–WT
T3 sequence (P49653 1-472 K308A): T1 sequence (P49653 1-472) with K308A
T3 sequence (P49653 1-472) 2: T1 sequence (P49653 1-472)
T3 sequence (P49653 1-472) 3: T1 sequence (P49653 1-472)

[4] = molecular target: T4, rat P2X2 tandem trimer WT–K308A–WT (Rattus norvegicus, UniProt P49653, K308A); test: ATP dose–response, two-electrode voltage clamp in Xenopus oocytes, WT–K308A–WT
T4 sequence (P49653 1-472) 1: T1 sequence (P49653 1-472)
T4 sequence (P49653 1-472 K308A): T1 sequence (P49653 1-472) with K308A
T4 sequence (P49653 1-472) 3: T1 sequence (P49653 1-472)

[5] = molecular target: T5, rat P2X2 tandem trimer WT–WT–K308A (Rattus norvegicus, UniProt P49653, K308A); test: ATP dose–response, two-electrode voltage clamp in Xenopus oocytes, WT–WT–K308A
T5 sequence (P49653 1-472) 1: T1 sequence (P49653 1-472)
T5 sequence (P49653 1-472) 2: T1 sequence (P49653 1-472)
T5 sequence (P49653 1-472 K308A): T1 sequence (P49653 1-472) with K308A

[6] = molecular target: T6, rat P2X2 D315A (Rattus norvegicus, UniProt P49653, D315A); test: ATP dose–response, two-electrode voltage clamp in Xenopus oocytes, D315A; conditions: at −160 mV
T6 sequence (P49653 1-472 D315A): T1 sequence (P49653 1-472) with D315A

[7] = molecular target: T7, rat P2X2 tandem trimer D315A–D315A–D315A (Rattus norvegicus, UniProt P49653, D315A); conditions: at −160 mV
T7 sequence (P49653 1-472 D315A) 1: T1 sequence (P49653 1-472) with D315A
T7 sequence (P49653 1-472 D315A) 2: T1 sequence (P49653 1-472) with D315A
T7 sequence (P49653 1-472 D315A) 3: T1 sequence (P49653 1-472) with D315A

[8] = molecular target: T8, rat P2X2 tandem trimer D315A–D315A–WT (Rattus norvegicus, UniProt P49653, D315A); conditions: at −160 mV
T8 sequence (P49653 1-472 D315A) 1: T1 sequence (P49653 1-472) with D315A
T8 sequence (P49653 1-472 D315A) 2: T1 sequence (P49653 1-472) with D315A
T8 sequence (P49653 1-472): T1 sequence (P49653 1-472)

[9] = molecular target: T9, rat P2X2 tandem trimer D315A–WT–WT (Rattus norvegicus, UniProt P49653, D315A); test: ATP dose–response, two-electrode voltage clamp in Xenopus oocytes, D315A–WT–WT
T9 sequence (P49653 1-472 D315A): T1 sequence (P49653 1-472) with D315A
T9 sequence (P49653 1-472) 2: T1 sequence (P49653 1-472)
T9 sequence (P49653 1-472) 3: T1 sequence (P49653 1-472)

[10] = molecular target: T10, rat P2X2 tandem trimer T339S–T339S–T339S (Rattus norvegicus, UniProt P49653, T339S)
T10 sequence (P49653 1-472 T339S) 1: T1 sequence (P49653 1-472) with T339S
T10 sequence (P49653 1-472 T339S) 2: T1 sequence (P49653 1-472) with T339S
T10 sequence (P49653 1-472 T339S) 3: T1 sequence (P49653 1-472) with T339S

[11] = molecular target: T11, rat P2X2 tandem trimer WT–T339S–T339S (Rattus norvegicus, UniProt P49653, T339S)
T11 sequence (P49653 1-472): T1 sequence (P49653 1-472)
T11 sequence (P49653 1-472 T339S) 2: T1 sequence (P49653 1-472) with T339S
T11 sequence (P49653 1-472 T339S) 3: T1 sequence (P49653 1-472) with T339S

[12] = molecular target: T12, rat P2X2 tandem trimer WT–T339S–WT (Rattus norvegicus, UniProt P49653, T339S); test: ATP dose–response, two-electrode voltage clamp in Xenopus oocytes, WT–T339S–WT
T12 sequence (P49653 1-472) 1: T1 sequence (P49653 1-472)
T12 sequence (P49653 1-472 T339S): T1 sequence (P49653 1-472) with T339S
T12 sequence (P49653 1-472) 3: T1 sequence (P49653 1-472)

[13] = molecular target: T13, rat P2X2 K308A (Rattus norvegicus, UniProt P49653, K308A); test: ATP activation of the K308A mutant channel; conditions: K308A mutation, very high concentrations of ATP (>3 mM)
T13 sequence (P49653 1-472 K308A): T1 sequence (P49653 1-472) with K308A

[14] = molecular target: T14, rat P2X2 tandem trimer K308A&K69A–WT–WT (Rattus norvegicus, UniProt P49653, K308A/K69A); test: Hetero-assembly test, activation by ATP, K308A&K69A–WT–WT; conditions: 1 mM [ATP], days 1 and 2 after RNA injection
T14 sequence (P49653 1-472 K69A/K308A): T1 sequence (P49653 1-472) with K69A, K308A
T14 sequence (P49653 1-472) 2: T1 sequence (P49653 1-472)
T14 sequence (P49653 1-472) 3: T1 sequence (P49653 1-472)

[15] = molecular target: T15, rat P2X2 tandem trimer WT–K308A&K69A–WT (Rattus norvegicus, UniProt P49653, K308A/K69A); test: Hetero-assembly test, activation by ATP, WT–K308A&K69A–WT; conditions: 1 mM [ATP], days 1 and 2 after RNA injection
T15 sequence (P49653 1-472) 1: T1 sequence (P49653 1-472)
T15 sequence (P49653 1-472 K69A/K308A): T1 sequence (P49653 1-472) with K69A, K308A
T15 sequence (P49653 1-472) 3: T1 sequence (P49653 1-472)

[16] = molecular target: T16, rat P2X2 tandem trimer WT–WT–K308A&K69A (Rattus norvegicus, UniProt P49653, K308A/K69A); test: Hetero-assembly test, activation by ATP, WT–WT–K308A&K69A; conditions: 1 mM [ATP], days 1 and 2 after RNA injection
T16 sequence (P49653 1-472) 1: T1 sequence (P49653 1-472)
T16 sequence (P49653 1-472) 2: T1 sequence (P49653 1-472)
T16 sequence (P49653 1-472 K69A/K308A): T1 sequence (P49653 1-472) with K69A, K308A

EC50 [1]: 14.5 ± 1.2 µM | Hill coefficient ([1]; WT, at −160 mV, Xenopus oocytes, mean ± SEM): 1.7 ± 0.2 | EC50 [2]: 19.1 ± 2 µM | EC50 [3]: 42.3 ± 2.2 µM | Hill coefficient ([3]; K308A–WT–WT, at −160 mV, mean ± SEM): 1.7 ± 0.18 | EC50 [4]: 22.9 ± 1.8 µM | EC50 [5]: 33.3 ± 1.65 µM | Hill coefficient ([5]; WT–WT–K308A, at −160 mV, mean ± SEM): 1.6 ± 1.4 | EC50 ([6]; EC50 (1), first phase of biphasic dose–response): 1.2 ± 0.6 µM | EC50 ([6]; EC50 (2), second phase of biphasic dose–response): 89.1 ± 1.48 µM | Hill (1) ([6]; first phase): 2.4 ± 0.7 | EC50 ([7]; EC50 (1), first phase): 1.5 ± 0.8 µM | EC50 ([7]; EC50 (2), second phase): 130 ± 5 µM | Hill (1) ([7]; first phase): 3.7 ± 0.6 | EC50 ([8]; EC50 (1), first phase): 3.15 ± 0.9 µM | EC50 ([8]; EC50 (2), second phase): 794 ± 12 µM | EC50 [9]: 6.02 ± 1.1 µM | Hill ([9]; D315A–WT–WT, at −160 mV): 1.4 ± 0.1 | EC50 [10]: 2.4 ± 0.4 µM | Hill ([10]; T339S–T339S–T339S, at −160 mV): 1.5 ± 0.3 | EC50 [11]: 6 ± 0.4 µM | Hill ([11]; WT–T339S–T339S, at −160 mV): 1.5 ± 0.2 | EC50 [12]: 12.2 ± 1.2 µM | Hill ([12]; WT–T339S–WT, at −160 mV): 1.5 ± 0.9 | channel response to ATP [13]: unresponsive | activation in response to ATP [14]: did not show any prominent activation | activation in response to ATP [15]: did not show any prominent activation | activation in response to ATP [16]: did not show any prominent activation
Compound: Nc1ncnc2c1ncn2[C@@H]1O[C@H](COP(=O)(O)OP(=O)(O)OP(=O)(O)O)[C@@H](O)[C@H]1O [ATP, adenosine triphosphate]
